Results taken from patent publication US9580390B2, “Indazole compounds as kinase inhibitors and method of treating cancer with same” (University Health Network, priority 2011, dated 2017).
Like-named read-outs stand apart in the source and are kept apart here.

Columns and labels:
Breast cancer cells = test: Cancer cell line growth inhibition (SRB assay); format: cell-based; conditions: Homo sapiens; MDA-MB-468; read-out: Cancer Cell Line GI50 Range MDA-MB-468
[1] = tested on: colon cancer cells (HCT116); test: Cancer cell line growth inhibition (SRB assay); format: cell-based; conditions: Homo sapiens, HCT-116; read-out: Cancer Cell Line GI50 Range HCT116
[2] = tested on: ovarian cancer cells (PA-1); test: Cancer cell line growth inhibition (SRB assay); format: cell-based; conditions: Homo sapiens, PA-1; read-out: Cancer Cell Line GI50 Range PA-1
TICs (Ovarian 2393A) = test: Ovarian tumor-initiating cell growth inhibition (Alamar Blue); format: cell-based; conditions: 144 h; Ovarian 2393A TICs, 6 days; read-out: Tumor Initiating Cell GI50 Range Ovarain 2393A
TICs (Colon 12) = test: Colon tumor-initiating cell growth inhibition (Alamar Blue); format: cell-based; conditions: 216 h; Colon 12 TICs, 9 days; read-out: Tumor Initiating Cell GI50 Range Colon 12
human TTK = target: T1, human TTK (Homo sapiens, UniProt P33981); test: TTK inhibition assay (indirect ELISA); format: biochemical
T1 construct: amino terminal GST fusion of full length human TTK; purchased Invitrogen
T1 sequence (P33981 1-857): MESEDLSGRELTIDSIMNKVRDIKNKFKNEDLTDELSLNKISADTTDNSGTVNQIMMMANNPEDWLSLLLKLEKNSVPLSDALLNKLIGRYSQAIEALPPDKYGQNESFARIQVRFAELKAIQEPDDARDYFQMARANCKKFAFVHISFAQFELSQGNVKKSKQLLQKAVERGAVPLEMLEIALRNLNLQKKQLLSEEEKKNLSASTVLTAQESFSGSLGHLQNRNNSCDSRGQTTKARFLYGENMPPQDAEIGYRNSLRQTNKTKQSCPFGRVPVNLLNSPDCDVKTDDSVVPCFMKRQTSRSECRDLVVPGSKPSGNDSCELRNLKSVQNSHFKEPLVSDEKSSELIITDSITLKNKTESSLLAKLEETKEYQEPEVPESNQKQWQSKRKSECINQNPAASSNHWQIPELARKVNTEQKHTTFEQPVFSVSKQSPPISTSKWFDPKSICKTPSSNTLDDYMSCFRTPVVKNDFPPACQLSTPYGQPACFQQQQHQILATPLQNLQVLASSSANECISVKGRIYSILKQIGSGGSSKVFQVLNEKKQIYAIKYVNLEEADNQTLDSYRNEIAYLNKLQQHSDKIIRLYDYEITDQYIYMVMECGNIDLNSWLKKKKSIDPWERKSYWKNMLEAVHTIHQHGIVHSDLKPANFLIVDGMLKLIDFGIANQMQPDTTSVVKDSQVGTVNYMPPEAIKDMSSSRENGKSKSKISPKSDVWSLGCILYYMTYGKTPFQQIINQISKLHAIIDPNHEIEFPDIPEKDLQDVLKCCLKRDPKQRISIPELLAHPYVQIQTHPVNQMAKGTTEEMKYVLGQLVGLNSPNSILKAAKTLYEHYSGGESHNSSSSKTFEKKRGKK

MELK = target: T2, MELK (Homo sapiens, UniProt Q14680); test: Panel of 270 human kinases (Millipore); format: biochemical
T2 construct: purchased Millipore Corporation
Protocol: (§1) The inhibitory activity of selected compounds of the invention (A335, A405, A410, A261, A300 and A363) was evaluated against a panel of 270 different human kinase enzymes by Millipore Corporation. The % Inhibition was determined by the formula: % Inhibition=100×(1−(experimental value−background value)/(high activity control−background value)).

Met(Y1248C) = target: T3, Met(Y1248C) (Homo sapiens, UniProt P08581, Y1230C); test: Panel of 270 human kinases (Millipore); format: biochemical
T3 construct: purchased Millipore Corporation
Protocol: as §1

Aurora-B = target: T4, Aurora-B (Homo sapiens, UniProt Q96GD4); test: Panel of 270 human kinases (Millipore); format: biochemical
T4 construct: purchased Millipore Corporation
Protocol: as §1

MUSK = target: T5, MUSK (Homo sapiens, UniProt O15146); test: Panel of 270 human kinases (Millipore); format: biochemical
T5 construct: purchased Millipore Corporation
T5 sequence (O15146 24-869): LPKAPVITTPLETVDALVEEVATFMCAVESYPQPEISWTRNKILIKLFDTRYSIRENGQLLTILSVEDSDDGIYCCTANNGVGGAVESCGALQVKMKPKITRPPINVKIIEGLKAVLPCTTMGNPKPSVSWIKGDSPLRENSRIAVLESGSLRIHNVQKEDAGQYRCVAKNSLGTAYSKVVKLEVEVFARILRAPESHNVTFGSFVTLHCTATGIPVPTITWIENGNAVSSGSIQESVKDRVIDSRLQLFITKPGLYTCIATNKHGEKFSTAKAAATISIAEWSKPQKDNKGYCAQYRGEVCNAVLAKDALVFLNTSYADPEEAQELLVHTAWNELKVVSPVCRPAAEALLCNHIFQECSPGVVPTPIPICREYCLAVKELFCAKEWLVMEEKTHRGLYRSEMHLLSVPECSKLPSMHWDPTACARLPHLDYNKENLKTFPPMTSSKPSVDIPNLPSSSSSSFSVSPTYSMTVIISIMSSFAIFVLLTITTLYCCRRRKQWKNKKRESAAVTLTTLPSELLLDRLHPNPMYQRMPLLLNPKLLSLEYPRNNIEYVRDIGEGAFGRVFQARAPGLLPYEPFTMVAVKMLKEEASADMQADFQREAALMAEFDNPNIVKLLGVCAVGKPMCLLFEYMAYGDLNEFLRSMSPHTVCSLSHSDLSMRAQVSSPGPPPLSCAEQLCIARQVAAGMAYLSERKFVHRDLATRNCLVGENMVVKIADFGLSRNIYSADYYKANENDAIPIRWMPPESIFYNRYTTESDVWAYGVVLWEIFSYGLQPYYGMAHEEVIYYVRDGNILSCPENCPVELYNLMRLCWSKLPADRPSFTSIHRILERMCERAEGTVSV
Protocol: as §1

cKit (V560G) = target: T6, cKit (V560G) (Homo sapiens, UniProt P10721, V560G); test: Panel of 270 human kinases (Millipore); format: biochemical
T6 construct: purchased Millipore Corporation
Protocol: as §1

MAPK2 = target: T7, MAPK2 (Homo sapiens, UniProt P28482); test: Panel of 270 human kinases (Millipore); format: biochemical
T7 construct: purchased Millipore Corporation
Protocol: as §1

ALK = target: T8, ALK (Homo sapiens, UniProt Q9UM73); test: Panel of 270 human kinases (Millipore); format: biochemical
T8 construct: purchased Millipore Corporation
Protocol: as §1

JNK3 = target: T9, JNK3 (Homo sapiens, UniProt P53779); test: Panel of 270 human kinases (Millipore); format: biochemical
T9 construct: purchased Millipore Corporation
Protocol: as §1

T8 sequence (Q9UM73 19-1620): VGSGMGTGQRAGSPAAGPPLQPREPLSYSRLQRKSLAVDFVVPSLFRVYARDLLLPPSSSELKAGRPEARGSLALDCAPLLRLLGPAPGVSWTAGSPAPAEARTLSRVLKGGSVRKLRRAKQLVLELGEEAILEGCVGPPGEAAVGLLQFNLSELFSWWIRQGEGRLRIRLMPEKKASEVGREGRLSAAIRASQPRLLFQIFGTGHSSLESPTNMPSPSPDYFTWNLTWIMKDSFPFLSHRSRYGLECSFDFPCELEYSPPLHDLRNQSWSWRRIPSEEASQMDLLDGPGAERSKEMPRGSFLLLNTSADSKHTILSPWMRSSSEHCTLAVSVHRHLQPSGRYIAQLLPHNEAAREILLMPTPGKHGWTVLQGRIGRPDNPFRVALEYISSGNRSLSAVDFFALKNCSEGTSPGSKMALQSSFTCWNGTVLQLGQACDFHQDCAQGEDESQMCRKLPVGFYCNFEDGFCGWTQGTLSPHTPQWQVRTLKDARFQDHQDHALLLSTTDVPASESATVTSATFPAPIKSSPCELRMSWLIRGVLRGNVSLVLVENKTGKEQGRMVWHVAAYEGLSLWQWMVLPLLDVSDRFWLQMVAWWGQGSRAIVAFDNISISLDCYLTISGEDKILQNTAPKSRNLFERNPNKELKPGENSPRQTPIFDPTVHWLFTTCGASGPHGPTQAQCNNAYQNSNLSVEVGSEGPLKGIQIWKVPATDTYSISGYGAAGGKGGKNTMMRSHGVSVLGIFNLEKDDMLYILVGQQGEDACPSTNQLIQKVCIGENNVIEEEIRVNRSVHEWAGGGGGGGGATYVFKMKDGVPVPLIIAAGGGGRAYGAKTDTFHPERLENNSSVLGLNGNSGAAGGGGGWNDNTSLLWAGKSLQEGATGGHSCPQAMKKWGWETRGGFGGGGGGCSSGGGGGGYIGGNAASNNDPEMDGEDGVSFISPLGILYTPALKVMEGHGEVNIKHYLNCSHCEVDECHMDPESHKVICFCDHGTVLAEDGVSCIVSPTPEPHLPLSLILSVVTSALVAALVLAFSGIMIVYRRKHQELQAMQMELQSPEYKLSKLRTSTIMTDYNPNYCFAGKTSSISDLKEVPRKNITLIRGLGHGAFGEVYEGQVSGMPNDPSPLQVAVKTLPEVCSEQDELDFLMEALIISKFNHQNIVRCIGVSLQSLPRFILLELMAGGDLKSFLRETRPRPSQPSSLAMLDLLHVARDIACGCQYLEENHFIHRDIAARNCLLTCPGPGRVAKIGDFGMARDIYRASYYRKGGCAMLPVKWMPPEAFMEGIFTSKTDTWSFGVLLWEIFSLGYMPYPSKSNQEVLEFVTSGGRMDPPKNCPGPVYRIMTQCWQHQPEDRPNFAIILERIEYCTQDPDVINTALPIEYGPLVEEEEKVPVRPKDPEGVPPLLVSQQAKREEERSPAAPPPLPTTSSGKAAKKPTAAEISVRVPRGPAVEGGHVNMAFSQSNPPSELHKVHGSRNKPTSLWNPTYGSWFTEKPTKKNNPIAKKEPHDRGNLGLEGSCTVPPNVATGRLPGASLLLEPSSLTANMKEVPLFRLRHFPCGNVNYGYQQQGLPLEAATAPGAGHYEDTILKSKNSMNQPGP
T9 sequence (P53779 whole entry): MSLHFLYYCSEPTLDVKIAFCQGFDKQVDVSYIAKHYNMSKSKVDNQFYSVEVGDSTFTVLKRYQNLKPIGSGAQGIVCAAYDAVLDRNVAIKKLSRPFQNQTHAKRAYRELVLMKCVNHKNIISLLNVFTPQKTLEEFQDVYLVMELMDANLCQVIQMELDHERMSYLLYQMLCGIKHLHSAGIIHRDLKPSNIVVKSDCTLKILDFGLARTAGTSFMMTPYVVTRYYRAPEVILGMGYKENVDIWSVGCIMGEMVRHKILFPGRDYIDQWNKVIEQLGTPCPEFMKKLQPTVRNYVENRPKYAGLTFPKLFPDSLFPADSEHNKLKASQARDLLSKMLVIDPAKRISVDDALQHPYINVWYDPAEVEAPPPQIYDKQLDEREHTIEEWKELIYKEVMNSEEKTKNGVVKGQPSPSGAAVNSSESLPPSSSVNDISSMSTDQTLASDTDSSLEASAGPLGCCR
T6 sequence (P10721 26-976 V560G): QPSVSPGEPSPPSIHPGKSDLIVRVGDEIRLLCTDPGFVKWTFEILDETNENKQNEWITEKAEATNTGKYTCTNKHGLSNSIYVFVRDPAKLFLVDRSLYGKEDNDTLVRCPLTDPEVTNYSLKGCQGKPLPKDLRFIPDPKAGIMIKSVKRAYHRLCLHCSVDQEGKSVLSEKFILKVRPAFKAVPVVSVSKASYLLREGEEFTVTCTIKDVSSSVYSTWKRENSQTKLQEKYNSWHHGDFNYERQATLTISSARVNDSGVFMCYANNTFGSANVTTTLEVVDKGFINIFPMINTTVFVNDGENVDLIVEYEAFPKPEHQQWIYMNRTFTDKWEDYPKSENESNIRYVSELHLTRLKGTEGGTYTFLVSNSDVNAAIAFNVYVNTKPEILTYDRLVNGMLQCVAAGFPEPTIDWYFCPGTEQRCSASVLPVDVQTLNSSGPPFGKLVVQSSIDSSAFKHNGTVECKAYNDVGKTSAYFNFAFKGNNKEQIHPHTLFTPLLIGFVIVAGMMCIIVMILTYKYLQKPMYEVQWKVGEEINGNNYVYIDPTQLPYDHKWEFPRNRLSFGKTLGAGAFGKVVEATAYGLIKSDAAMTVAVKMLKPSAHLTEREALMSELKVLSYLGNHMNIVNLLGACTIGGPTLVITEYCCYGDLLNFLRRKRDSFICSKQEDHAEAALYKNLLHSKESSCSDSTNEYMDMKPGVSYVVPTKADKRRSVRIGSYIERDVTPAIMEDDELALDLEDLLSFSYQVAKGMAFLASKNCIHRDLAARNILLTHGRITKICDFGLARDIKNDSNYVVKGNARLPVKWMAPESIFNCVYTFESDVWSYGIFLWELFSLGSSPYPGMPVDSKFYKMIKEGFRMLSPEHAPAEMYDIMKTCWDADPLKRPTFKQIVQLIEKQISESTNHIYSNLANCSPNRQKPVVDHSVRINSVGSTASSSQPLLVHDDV
T7 sequence (P28482 whole entry): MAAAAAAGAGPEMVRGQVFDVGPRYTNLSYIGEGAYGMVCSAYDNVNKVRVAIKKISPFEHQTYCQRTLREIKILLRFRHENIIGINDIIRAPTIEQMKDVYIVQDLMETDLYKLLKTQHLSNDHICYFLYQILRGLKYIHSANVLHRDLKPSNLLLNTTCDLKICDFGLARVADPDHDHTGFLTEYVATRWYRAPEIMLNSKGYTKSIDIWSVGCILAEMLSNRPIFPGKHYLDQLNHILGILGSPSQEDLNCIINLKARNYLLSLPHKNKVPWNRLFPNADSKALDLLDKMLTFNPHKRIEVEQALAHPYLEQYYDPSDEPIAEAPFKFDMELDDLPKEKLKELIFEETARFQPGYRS
T4 sequence (Q96GD4 whole entry): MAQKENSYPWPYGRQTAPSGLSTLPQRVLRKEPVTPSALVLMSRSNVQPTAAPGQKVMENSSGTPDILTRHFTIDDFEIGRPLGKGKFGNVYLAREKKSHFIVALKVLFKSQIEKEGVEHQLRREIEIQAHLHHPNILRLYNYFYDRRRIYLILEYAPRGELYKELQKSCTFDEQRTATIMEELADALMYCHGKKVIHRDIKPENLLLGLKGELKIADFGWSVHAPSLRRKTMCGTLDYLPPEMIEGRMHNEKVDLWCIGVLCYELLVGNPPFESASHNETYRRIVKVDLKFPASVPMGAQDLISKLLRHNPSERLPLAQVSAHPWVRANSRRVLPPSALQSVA
T3 sequence (P08581 25-1408 isoform P08581-2 Y1248C limits assumed): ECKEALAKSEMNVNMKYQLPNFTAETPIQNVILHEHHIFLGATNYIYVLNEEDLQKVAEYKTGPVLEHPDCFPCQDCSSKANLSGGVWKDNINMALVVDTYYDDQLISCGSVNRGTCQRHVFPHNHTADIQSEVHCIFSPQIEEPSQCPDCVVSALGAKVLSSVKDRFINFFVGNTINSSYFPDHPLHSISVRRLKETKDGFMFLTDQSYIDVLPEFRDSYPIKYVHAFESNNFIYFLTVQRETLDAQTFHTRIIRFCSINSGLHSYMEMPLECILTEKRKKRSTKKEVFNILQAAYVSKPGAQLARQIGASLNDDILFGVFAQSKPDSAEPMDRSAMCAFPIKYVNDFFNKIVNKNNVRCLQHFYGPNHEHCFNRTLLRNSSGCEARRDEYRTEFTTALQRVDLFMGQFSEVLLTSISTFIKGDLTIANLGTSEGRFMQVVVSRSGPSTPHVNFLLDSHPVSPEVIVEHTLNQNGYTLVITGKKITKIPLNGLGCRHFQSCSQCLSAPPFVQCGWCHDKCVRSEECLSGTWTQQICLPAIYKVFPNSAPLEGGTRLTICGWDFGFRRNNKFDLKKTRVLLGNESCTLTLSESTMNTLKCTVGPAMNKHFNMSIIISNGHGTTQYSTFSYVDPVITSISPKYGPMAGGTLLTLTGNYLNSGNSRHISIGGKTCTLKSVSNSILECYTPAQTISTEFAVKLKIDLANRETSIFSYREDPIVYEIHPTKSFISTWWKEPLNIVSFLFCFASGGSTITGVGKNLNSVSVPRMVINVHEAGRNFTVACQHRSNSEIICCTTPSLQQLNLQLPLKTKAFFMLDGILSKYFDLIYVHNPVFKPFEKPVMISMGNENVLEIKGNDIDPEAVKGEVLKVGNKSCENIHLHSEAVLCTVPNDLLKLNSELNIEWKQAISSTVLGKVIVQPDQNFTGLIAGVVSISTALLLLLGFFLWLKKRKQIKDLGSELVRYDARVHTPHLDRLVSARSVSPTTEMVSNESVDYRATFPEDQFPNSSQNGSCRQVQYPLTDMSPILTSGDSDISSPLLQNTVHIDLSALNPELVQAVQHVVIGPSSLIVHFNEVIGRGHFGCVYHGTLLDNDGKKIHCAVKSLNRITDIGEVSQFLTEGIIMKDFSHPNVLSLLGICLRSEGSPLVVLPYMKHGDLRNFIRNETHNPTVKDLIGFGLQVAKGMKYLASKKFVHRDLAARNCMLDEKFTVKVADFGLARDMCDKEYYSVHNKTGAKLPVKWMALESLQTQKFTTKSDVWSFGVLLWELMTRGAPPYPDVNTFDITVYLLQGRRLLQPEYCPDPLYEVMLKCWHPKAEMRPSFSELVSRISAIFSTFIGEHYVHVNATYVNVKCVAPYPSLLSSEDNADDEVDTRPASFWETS

GI50 (Breast cancer cells)	GI50 [1]	GI50 [2]	GI50 (TICs (Ovarian 2393A))	GI50 (TICs (Colon 12))	IC50 (human TTK; read-out: TTK IC50 Range)	inhibition at 1 µM (MELK)	inhibition at 1 µM (Met(Y1248C))	inhibition at 1 µM (Aurora-B)	inhibition at 1 µM (MUSK)	inhibition at 1 µM (cKit (V560G))	inhibition at 1 µM (MAPK2)	inhibition at 1 µM (ALK)	inhibition at 1 µM (JNK3)	Structure (SMILES)	IC50 (human TTK)
< 100 nM	< 100 nM	< 100 nM	< 100 nM	100 to 500 nM	< 100 nM	93%	8%	49%	86%	90%	8%	86%	59%	CC1=CC2(CCN(C)CC2)Oc2ccc(-c3n[nH]c4ccc(C(=O)N[C@H](c5ccccn5)C5CCCC5)cc34)cc21 [Example A261, (S)-N-(cyclopentyl(pyridin-2-yl)methyl)-3-(1′,4-dimethylspiro[chromene-2,4′-piperidin]-6-yl)-1H-indazole-5-carboxamide]	
< 100 nM	< 100 nM	< 100 nM	< 100 nM	< 100 nM	< 100 nM	92%	44%	94%	94%	65%	11%	2%	81%	CC(C)[C@H](NC(=O)c1ccc2[nH]nc(-c3ccc(N4CCN(C5COC5)CC4)cc3)c2c1)c1ccccc1Cl [Example A405, (S)-N-(1-(2-chlorophenyl)-2-methylpropyl)-3-(4-(4-(oxetan-3-yl)piperazin-1-yl)phenyl)-1H-indazole-5-carboxamide]	
	< 100 nM	< 100 nM	< 100 nM	< 100 nM	< 100 nM	95%	88%	92%	96%	86%	-8%	-3%	81%	O=C(N[C@H](c1ccccn1)C1CCCC1)c1ccc2[nH]nc(-c3ccc(N4CCN(C5COC5)CC4)cc3)c2c1 [Example A410, (S)-N-(cyclopentyl(pyridin-2-yl)methyl)-3-(4-(4-(oxetan-3-yl)piperazin-1-yl)phenyl)-1H-indazole-5-carboxamide]	

Structure (SMILES)	GI50 (Breast cancer cells)	GI50 [1]	GI50 [2]	GI50 (TICs (Ovarian 2393A))	GI50 (TICs (Colon 12))	IC50 (human TTK; read-out: TTK IC50 Range)	inhibition at 1 µM (MELK)	inhibition at 1 µM (Met(Y1248C))	inhibition at 1 µM (Aurora-B)	inhibition at 1 µM (MUSK)	inhibition at 1 µM (cKit (V560G))	inhibition at 1 µM (MAPK2)	inhibition at 1 µM (ALK)	inhibition at 1 µM (JNK3)	IC50 (human TTK)
O=C(N[C@@H](c1ccccn1)C1CC1)c1ccc2[nH]nc(-c3ccc(N4C5CCC4CC(O)C5)cc3)c2c1 (stereo partly drawn) [Example A363, N-((R)-cyclopropyl(pyridin-2-yl)methyl)-3-(4-((1R,3R,5S)-3-hydroxy-8-azabicyclo[3.2.1]octan-8-yl)phenyl)-1H-indazole-5-carboxamide]		< 100 nM	< 100 nM	< 100 nM	< 100 nM		80%	23%	75%	53%	48%	90%	6%	90%	< 100 nM
